Drawing on ChEMBL document CHEMBL1139192, “Novel bis(indolyl)maleimide pyridinophanes that are potent, selective inhibitors of glycogen synthase kinase-3” (Bioorg Med Chem Lett, 2007), this text covers residual activity for four molecules.

The structures appear in SMILES notation.

In test [1] the target is Receptor-type tyrosine-protein kinase FLT3 (Homo sapiens) (UniProt P36888). Kind of test: Residual activity of human Flt3 at 1 uM relative to control.
Test [2] has as its target Protein kinase C delta type (Homo sapiens) (UniProt Q05655). Kind of test: Inhibition of human PKCdelta at 1 uM relative to control; values are per cent of control.
The target of test [3] is T1, Ephrin type-B receptor 2 (Homo sapiens) (UniProt P29323).
T1 sequence (whole entry): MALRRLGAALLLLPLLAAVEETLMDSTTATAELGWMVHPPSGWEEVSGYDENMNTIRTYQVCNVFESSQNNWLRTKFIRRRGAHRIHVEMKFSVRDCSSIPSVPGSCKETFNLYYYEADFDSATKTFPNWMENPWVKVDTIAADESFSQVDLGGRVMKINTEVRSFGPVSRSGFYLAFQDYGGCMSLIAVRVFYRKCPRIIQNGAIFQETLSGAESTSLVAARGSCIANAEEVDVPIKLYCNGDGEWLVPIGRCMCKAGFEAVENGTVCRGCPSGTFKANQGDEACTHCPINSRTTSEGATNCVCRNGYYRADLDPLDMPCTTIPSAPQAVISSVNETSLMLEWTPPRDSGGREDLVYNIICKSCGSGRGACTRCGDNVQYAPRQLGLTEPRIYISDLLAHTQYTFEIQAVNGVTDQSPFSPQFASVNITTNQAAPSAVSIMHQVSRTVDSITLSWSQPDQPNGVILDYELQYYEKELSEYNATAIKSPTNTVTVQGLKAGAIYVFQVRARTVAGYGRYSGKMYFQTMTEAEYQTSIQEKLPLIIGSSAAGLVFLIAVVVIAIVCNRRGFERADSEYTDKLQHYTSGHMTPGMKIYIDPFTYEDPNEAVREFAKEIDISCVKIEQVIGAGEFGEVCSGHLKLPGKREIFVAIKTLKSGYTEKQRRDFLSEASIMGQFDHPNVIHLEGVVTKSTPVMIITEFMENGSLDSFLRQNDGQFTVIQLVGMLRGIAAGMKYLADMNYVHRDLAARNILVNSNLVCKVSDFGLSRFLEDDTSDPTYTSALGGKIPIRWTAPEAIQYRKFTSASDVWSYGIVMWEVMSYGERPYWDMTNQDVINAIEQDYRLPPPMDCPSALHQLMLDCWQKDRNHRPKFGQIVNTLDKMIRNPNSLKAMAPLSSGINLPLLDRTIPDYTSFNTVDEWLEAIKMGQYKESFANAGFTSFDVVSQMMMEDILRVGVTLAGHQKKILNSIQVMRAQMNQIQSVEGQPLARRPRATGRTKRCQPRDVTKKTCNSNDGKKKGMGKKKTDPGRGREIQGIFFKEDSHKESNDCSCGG
Nature of the test: Inhibition of human EphB2 at 1 uM relative to control; values are per cent of control.

Test [4] concerns the target T2, Mitogen-activated protein kinase 12 (Homo sapiens) (UniProt P53778).
T2 sequence (whole entry): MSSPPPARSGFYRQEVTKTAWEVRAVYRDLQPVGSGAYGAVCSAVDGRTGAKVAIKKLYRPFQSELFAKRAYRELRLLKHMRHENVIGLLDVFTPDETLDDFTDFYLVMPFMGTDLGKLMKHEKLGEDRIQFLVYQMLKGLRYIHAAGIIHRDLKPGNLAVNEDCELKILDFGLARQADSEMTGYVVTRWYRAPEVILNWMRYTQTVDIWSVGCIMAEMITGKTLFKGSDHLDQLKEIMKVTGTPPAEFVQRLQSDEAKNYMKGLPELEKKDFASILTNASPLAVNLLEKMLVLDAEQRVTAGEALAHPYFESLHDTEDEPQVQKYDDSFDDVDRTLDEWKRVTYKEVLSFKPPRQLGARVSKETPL
Kind of test: Inhibition of human SAPK3 at 1 uM relative to control; values are per cent of control.

The target in test [5] is Epidermal growth factor receptor (Homo sapiens) (UniProt P00533). Nature of the test: Inhibition of human EGFR at 1 uM relative to control; values are per cent of control.
For test [6], the target named is T3, Mitogen-activated protein kinase 13 (Homo sapiens) (UniProt O15264).
T3 sequence (whole entry): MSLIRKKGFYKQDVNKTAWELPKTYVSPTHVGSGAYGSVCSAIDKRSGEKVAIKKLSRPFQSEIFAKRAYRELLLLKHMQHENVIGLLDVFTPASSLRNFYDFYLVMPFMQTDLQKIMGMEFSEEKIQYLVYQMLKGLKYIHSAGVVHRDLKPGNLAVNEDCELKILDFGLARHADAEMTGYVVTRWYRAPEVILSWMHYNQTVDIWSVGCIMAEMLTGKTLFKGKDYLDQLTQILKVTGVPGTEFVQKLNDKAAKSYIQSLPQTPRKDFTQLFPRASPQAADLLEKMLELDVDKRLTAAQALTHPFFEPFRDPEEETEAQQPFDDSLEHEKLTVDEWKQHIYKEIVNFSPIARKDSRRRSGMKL
Kind of test: Inhibition of human SAPK4 at 1 uM relative to control; values are per cent of control.

Test [7] concerns the target Tyrosine-protein kinase ZAP-70 (Homo sapiens) (UniProt P43403). Nature of the test: Residual activity of human ZAP70 kinase at 1 uM relative to control.
The target in test [8] is Mitogen-activated protein kinase 9 (Homo sapiens) (UniProt P45984). Kind of test: Inhibition of human JNK2-alpha-2 at 1 uM relative to control; values are per cent of control.
Test [9] has as its target T4, Serine/threonine-protein kinase Sgk1 (Homo sapiens) (UniProt O00141).
T4 sequence (whole entry): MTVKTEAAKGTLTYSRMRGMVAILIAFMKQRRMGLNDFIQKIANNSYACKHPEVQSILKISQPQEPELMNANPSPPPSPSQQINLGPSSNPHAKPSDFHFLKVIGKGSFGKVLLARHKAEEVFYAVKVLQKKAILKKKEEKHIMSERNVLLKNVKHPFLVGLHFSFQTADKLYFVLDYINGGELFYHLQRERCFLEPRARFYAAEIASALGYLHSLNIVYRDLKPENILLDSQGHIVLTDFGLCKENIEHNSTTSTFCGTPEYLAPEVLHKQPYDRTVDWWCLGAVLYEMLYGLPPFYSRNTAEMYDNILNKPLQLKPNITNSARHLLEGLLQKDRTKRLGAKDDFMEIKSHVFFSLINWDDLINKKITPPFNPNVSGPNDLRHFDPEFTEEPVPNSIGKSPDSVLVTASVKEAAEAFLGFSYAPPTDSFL
Kind of test: Inhibition of human SGK at 1 uM relative to control; values are per cent of control.

In test [10] the test system is Tyrosine-protein kinase ABL1 (Homo sapiens), P00519 [T315I]. Nature of the test: Residual activity of human Abl T315I mutant at 1 uM relative to control.

Sequence of Mitogen-activated protein kinase 9 (Homo sapiens) (P45984 whole entry, looked up): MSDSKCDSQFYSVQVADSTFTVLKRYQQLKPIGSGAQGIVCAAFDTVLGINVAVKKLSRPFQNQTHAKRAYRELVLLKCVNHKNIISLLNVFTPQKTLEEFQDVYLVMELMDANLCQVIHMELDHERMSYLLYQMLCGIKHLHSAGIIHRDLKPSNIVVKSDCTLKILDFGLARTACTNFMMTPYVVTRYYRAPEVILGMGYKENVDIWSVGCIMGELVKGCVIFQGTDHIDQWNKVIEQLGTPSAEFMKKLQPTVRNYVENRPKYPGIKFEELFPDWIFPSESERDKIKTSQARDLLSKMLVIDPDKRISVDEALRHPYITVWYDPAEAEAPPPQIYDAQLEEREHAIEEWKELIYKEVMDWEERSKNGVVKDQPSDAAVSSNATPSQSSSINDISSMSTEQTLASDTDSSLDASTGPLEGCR
Sequence of Receptor-type tyrosine-protein kinase FLT3 (Homo sapiens) (P36888 whole entry): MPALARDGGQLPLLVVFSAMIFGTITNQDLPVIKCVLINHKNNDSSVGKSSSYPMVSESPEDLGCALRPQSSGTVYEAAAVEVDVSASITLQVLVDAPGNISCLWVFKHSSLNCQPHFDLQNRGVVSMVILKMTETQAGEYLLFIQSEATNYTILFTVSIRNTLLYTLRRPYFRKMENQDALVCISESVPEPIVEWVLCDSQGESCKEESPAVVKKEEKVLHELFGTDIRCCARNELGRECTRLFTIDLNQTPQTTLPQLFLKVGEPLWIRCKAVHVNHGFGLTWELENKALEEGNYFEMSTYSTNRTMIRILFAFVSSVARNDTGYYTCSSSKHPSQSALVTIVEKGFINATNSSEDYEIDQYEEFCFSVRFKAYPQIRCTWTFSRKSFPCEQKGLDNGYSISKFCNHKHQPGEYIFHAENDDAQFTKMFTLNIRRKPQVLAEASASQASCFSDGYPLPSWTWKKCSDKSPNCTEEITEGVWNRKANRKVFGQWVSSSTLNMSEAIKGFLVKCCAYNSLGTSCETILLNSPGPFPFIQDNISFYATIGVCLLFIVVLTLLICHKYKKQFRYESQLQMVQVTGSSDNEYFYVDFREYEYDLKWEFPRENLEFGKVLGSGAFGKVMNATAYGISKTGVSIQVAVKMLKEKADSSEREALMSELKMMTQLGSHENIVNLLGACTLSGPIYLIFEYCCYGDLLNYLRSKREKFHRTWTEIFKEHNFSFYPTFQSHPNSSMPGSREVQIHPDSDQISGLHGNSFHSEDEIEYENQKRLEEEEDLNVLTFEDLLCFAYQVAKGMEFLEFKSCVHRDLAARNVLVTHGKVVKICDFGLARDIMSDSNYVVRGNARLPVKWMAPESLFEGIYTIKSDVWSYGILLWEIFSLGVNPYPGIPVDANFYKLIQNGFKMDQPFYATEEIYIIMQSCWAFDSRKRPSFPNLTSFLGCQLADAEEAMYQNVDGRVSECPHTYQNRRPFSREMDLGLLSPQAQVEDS
Sequence of Protein kinase C delta type (Homo sapiens) (Q05655 whole entry, looked up): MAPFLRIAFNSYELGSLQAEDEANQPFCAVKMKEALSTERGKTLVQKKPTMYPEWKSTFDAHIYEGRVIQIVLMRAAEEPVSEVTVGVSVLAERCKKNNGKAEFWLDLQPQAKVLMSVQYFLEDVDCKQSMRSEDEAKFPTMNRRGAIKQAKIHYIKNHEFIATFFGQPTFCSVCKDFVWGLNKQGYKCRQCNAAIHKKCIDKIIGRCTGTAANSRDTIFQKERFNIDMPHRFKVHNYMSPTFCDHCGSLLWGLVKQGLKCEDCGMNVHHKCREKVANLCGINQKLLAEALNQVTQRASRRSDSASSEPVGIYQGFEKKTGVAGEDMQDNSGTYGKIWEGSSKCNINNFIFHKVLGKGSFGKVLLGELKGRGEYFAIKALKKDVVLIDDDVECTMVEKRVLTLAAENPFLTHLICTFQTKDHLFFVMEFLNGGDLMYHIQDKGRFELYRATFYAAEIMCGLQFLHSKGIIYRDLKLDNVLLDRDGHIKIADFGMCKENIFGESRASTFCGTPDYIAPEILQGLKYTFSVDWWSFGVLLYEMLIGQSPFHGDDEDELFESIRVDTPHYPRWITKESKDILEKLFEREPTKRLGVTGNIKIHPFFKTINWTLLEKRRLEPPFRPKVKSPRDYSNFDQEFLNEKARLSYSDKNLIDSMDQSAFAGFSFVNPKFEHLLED
Sequence of Tyrosine-protein kinase ZAP-70 (Homo sapiens) (P43403 whole entry, looked up): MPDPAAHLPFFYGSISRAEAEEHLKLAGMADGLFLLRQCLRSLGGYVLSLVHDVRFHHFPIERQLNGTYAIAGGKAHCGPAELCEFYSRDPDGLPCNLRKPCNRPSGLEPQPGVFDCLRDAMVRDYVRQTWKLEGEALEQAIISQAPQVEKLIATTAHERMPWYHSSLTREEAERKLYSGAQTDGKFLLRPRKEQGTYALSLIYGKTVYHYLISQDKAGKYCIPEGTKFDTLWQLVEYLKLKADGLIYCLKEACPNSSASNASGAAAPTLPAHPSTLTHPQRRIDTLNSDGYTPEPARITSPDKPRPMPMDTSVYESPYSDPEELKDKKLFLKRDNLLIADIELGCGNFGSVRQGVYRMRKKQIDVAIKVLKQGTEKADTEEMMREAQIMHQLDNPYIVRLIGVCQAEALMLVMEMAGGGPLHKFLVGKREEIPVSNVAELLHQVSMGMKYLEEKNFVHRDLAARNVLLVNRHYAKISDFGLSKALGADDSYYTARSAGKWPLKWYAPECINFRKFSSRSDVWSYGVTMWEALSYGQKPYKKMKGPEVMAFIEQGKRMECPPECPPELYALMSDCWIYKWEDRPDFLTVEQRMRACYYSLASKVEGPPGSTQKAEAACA
Sequence of Epidermal growth factor receptor (Homo sapiens) (P00533 whole entry): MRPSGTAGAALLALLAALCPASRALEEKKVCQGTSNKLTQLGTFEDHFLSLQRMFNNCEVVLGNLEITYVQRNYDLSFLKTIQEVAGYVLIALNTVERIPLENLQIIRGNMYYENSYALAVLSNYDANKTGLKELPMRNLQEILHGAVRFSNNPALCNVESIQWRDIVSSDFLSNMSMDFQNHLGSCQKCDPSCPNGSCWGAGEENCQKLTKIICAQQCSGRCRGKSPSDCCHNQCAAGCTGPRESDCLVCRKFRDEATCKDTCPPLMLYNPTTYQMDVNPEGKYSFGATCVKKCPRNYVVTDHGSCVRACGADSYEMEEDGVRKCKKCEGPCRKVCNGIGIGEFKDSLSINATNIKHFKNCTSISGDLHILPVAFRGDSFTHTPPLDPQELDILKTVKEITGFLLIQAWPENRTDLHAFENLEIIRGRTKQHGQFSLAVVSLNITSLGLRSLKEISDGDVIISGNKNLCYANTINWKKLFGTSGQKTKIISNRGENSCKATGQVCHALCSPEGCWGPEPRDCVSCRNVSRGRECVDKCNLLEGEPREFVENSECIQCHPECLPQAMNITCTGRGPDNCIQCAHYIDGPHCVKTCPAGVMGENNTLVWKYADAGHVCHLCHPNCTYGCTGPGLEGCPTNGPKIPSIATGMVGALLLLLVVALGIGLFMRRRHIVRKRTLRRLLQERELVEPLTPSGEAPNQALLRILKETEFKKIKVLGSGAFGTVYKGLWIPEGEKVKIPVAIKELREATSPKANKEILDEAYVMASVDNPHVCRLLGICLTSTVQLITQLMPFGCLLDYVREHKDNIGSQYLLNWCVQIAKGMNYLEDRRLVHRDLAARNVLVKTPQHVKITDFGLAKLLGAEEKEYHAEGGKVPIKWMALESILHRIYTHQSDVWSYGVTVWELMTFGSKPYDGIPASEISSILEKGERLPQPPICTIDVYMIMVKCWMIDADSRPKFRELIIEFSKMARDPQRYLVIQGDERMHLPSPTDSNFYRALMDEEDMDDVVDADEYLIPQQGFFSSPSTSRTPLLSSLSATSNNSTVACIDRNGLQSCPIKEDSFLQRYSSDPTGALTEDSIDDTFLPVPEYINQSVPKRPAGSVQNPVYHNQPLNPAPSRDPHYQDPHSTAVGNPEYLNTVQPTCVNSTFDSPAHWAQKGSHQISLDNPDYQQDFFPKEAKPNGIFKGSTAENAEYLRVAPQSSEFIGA

For the molecule `CN(C)c1cc2cc(n1)CCCn1cc(c3ccccc31)C1=C(C(=O)NC1=O)c1cn(c3ccccc13)CCC2`, the residual activity in [1] was 71%; in test [2], 100%; in test [3] it was 114%; in test [4] it was 115%; in test [5] it was 96%; in test [6] it was 104%. The residual activity amounted to 103% in test [7], 106% in test [8], 105% in [9] and 79% in test [10].

Turning to `O=C1NC(=O)C2=C1c1cn(c3ccccc13)CCCc1ccc(c(N3CCCC3)n1)CCCn1cc2c2ccccc21`, the residual activity was 85% in test [1]; 91% in test [2]; 114% in test [3]; 114% in test [4]; 104% in [5]; 102% in [6]. Besides, the residual activity came to 121% in test [7], 110% in test [8], 93% in test [9] and 103% in test [10].

As to `O=C1NC(=O)C2=C1c1cn(c3ccccc13)CCCc1cc(nc(N3CCCC3)c1)CCCn1cc2c2ccccc21`, the residual activity in test [1] is 77%; in test [2], 104%; in test [3] it was 110%; in test [4], 103%; in test [5] it was 108%; in [6], 102%. The residual activity in [7] stood at 115%; in test [8] it was 114%; in [9], 109%; in test [10], 77%.

For `CN(C)c1nc2ccc1CCCn1cc(c3ccccc31)C1=C(C(=O)NC1=O)c1cn(c3ccccc13)CC2`, the residual activity in test [1] is 86%; in test [2], 73%; in test [3], 125%; in test [4], 78%; in [5] it was 94%; in test [6] it was 101%. Besides, the residual activity in [7] is 113%; in [8], 96%; in test [9], 93%; in test [10], 100%.
